What was measured:
Snapdragon Petals [1] = assay: Conversion of 14C-labelled floral scent precursor to 14C-methylbenzoate in situ by excised snapdragon petal lobes (headspace, scintillation counting); conditions: Time 240 min; 220 nCi applied
Snapdragon Petals [2] = assay: as above; conditions: for nanocuries of 14C-methylbenzoate from 14C-phenylalanine: 220 nCi applied
Experimental: Ten lower lobes of snapdragon flowers (variety Maryland True Pink, PanAmerican Seed Company, West Chicago, Ill.) were excised from the rest of the flower. Two microliters of ^14C-benzoic acid (500 nanocuries, or nCi) were pipetted onto the cut edge of the lower lobes. At this time, the lobes were allowed to sit for 10 minutes to permit uptake of the radiolabeled benzoic acid. The lobes were placed cut edge down on wet filter paper and the headspace collected over the course of the next four hours. The columns which trapped the volatiles were changed at 30, 60, 120 and 240 minutes after the start of incubation and eluted with 3 mls of hexane. The eluate (1.5 mls) was then analyzed in a liquid scintillation counter for the presence and amount of ^14C-methylbenzoate. The identity of ^14C-methylbenzoate was verified by its retention time on a thin-layer chromatography plate. As can be observed below in Table 2a, emission of ^14C-methylbenzoate was first detected within one hour after the start of the incubation period. […] This increase was even more dramatic over the next 2 hours as the amount of methylbenzoate emissions increased over 5-fold (compared to the first 2-hour collections period).
In additional experiments (see Table 2b below), an essentially identical radiolabeled experiment was performed in which ^14C-phenylalanine (220 nCi) was substituted for ^14C-benzoic acid as the radiolabeled floral scent precursor. As was observed previously with ^14C-benzoic acid, the ^14C-phenylalanine was rapidly converted to ^14C-methylbenzoate. Within just 30 minutes after the start of the incubation period, ^14C-methylbenzoate was detected. The amount of ^14C-methylbenzoate increased rapidly during the following three successive collection periods, respectively, (the rate increasing during each successive period).

spotted cucumber beetle = conditions: in vivo; cited from earlier work
H. lineata moths = conditions: in vivo; cited from earlier work
[3] = test system: intact root systems of soybean seedlings; conditions: intact root systems exposed; cited from earlier work
Cut Snapdragon Flowers [4] = assay: Floral scent emission of cut snapdragon flowers after 48 hours at 4° C. in darkness; type: in vivo; conditions: collected for 5 days at ambient temperature in the light after 48 hours at 4° C. in darkness; 5% (w/v) sucrose with or without 0.1 mg/ml benzoic acid
Experimental: Inflorescence-bearing snapdragon stems were harvested and incubated in water for 48 hours at 4° C. in darkness (to simulate post-harvest conditions at a commercial grower's facility and during shipping). […] The floral scent emission from the flowers was then collected for 5 days, and the total emission compared between the various treatments.

Petunia Cuttings = assay: Headspace GC-MS of methylbenzoate emission from Mitchell petunia cuttings; type: in vivo; conditions: 5% (w/v) sucrose with or without 0.1 mg/ml benzoic acid
Experimental: The petunia variety called ‘Mitchell’ is an older, non-commercial (i.e., research use only) cultivar (generally available from academic research institutions) that was previously known to emit floral scent, especially during the evening hours. […] With this identification of floral scent in hand, the uptake experiments carried out in Example 2 on cut snapdragon stems were repeated with inflorescence-bearing Mitchell petunia cuttings.
Headspace collection was performed on two intact flowers for a 24-hour period prior to harvest to measure the amount of methylbenzoate emitted. This methylbenzoate emission was measured by GC-MS and these values set at 100%. The two inflorescence-bearing stems were harvested and immediately were placed into a vessel containing 5% (w/v) sucrose or a vessel containing 5% (w/v) sucrose supplemented with 0.1 mg/ml benzoic acid. Headspace collection was carried out as described in Example 2 on the cuttings for five 24-hour periods after harvesting. During the fifth 24-hour period, the flowers on both cuttings eventually senesced and collapsed.

Cut Snapdragon Flowers [5] = assay: Headspace GC-MS of floral scent emission from cut snapdragon flowers placed in treatment solutions; type: in vivo; conditions: for Percentage amount of total floral scent emitted compared to the 24-hour period prior to harvest: 5% (w/v) sucrose and/or 0.1 mg/ml benzoic acid
Experimental: Volatiles emitted from snapdragon flowers were determined by headspace analysis, as described previously (Raguso and […], 1995, Plant Systematics and Evolution 194:55-67). […] (light /dark) temperature cycle. Flowers attached to the plant were enclosed in a polyvinylacetate bag (Reynolds, Inc.) and purified air was pumped over the flower at a flow rate of 250 ml/minute. […] Ionization energy was set at 70 eV. Column temperature programming was: 50° C. for 1 minute, then heated to 240° C. at a rate of 10°/minute. The MS was scanned from 41 to 400 AMU (atomic mass units). Simultaneous collections of ambient volatiles were used as controls. Components were first identified through a computer database containing several thousand mass spectra and confirmed by comparison of retention times and mass spectra of authentic standards. Headspace collection of greenhouse-grown, inflorescence-bearing snapdragons (Maryland True Pink, PanAmerican Seed Company, West Chicago, Ill.) was carried out for 24 hours. The snapdragon inflorescence-bearing stems for this experiment were carefully chosen to have a similar number of same-aged flowers. […] The sucrose level chosen was based upon the conclusions reached by Ichimura and Hisamatsu (1999, Journal for the Japanese Society for Horticultural Science, 68:61-66) that 5% (w/v) sucrose was the optimum sucrose level for maximum vase life of cut snapdragon flowers.

Potted Snapdragon Plant = assay: Spray application to an intact potted snapdragon plant, headspace floral scent emission
Experimental: In this experiment, a flowering snapdragon plant was selected and the headspace collected for a single 24-hour period. After this time, the inflorescence-bearing stem was sprayed to the point of runoff with a solution of 1 mg/ml benzoic acid. […] The flowers were allowed to dry and the headspace collected for the next 24 hours. […] However, during this 24-hour period after spray application of benzoic acid, several interesting observations were made.

[6] = test system: hypocotyl cells in light-grown, intact Nicotiana plumbaginifolia seedlings; conditions: 1 mM (approximately 0.125 mg/ml); cited from earlier work
IS10a = conditions: tobacco cells exposed to 200–400 mM; cited from earlier work
[7] = test system: lisianthus inflorescence-bearing stems; conditions: lisianthus (Eustoma), in vivo, 0.1 mg/ml
Experimental: (§1) To determine whether other floral scent precursors were taken up through the cut end of stems, and whether these compounds were transported in flowers other than snapdragon, the following experiment was performed.

[8] = test system: snapdragon inflorescence-bearing stems; conditions: in vivo, 0.1 mg/ml
Experimental: as §1

[9] = Post-Spray 24 hours, 1 mg/ml sprayed to runoff

Compound: ^14C-phenylalanine
- nanocuries of 14C-methylbenzoate from 14C-phenylalanine (Snapdragon Petals [1]): 25.387 nCi
- nanocuries of 14C-methylbenzoate from 14C-phenylalanine (Snapdragon Petals [2]; Time 0 min): 0.295 nCi
- nanocuries of 14C-methylbenzoate from 14C-phenylalanine (Snapdragon Petals [2]; Time 30 min): 0.983 nCi
- nanocuries of 14C-methylbenzoate from 14C-phenylalanine (Snapdragon Petals [2]; Time 60 min): 1.874 nCi
- nanocuries of 14C-methylbenzoate from 14C-phenylalanine (Snapdragon Petals [2]; Time 120 min): 5.635 nCi

Compound: OCC=Cc1ccccc1 [cinnamyl alcohol]
- attraction of the beetle (spotted cucumber beetle): attracted

Compound: ^14C-benzoic acid
- nanocuries of 14C-methylbenzoate from 14C-benzoic acid (Snapdragon Petals [2]; Time 0 min, 500 nCi applied to ten lower lobes): 0.030 nCi
- nanocuries of 14C-methylbenzoate from 14C-benzoic acid (Snapdragon Petals [2]; Time 30 min, 500 nCi applied): 0.036 nCi
- nanocuries of 14C-methylbenzoate from 14C-benzoic acid (Snapdragon Petals [2]; Time 60 min, 500 nCi applied): 0.354 nCi
- nanocuries of 14C-methylbenzoate from 14C-benzoic acid (Snapdragon Petals [2]; Time 120 min, 500 nCi applied): 2.544 nCi
- nanocuries of 14C-methylbenzoate from 14C-benzoic acid (Snapdragon Petals [2]; Time 240 min, 500 nCi applied): 13.226 nCi

Compound: COC(=O)c1ccccc1 [methylbenzoate]
- EAG response (H. lineata moths): especially strong

Compound: O=C(O)C=Cc1ccccc1 [cinnamic acid]
- electrolyte leakage [3]: rapid increase in electrolyte leakage

Compound: OC[C@H]1O[C@@](CO)(O[C@H]2O[C@H](CO)[C@@H](O)[C@H](O)[C@H]2O)[C@@H](O)[C@@H]1O [Sucrose, sucrose, reference compound]
- Total Emission (Cut Snapdragon Flowers [4]): 30^1 Units of total floral scent
- Percentage amount of methylbenzoate emitted compared to the 24-hour period prior to harvest (Petunia Cuttings; Day 1 after harvest): 62^2%
- Percentage amount of methylbenzoate emitted compared to the 24-hour period prior to harvest (Petunia Cuttings; Day 2 after harvest): 76%
- Percentage amount of methylbenzoate emitted compared to the 24-hour period prior to harvest (Petunia Cuttings; Day 3 after harvest): 48%
- Percentage amount of methylbenzoate emitted compared to the 24-hour period prior to harvest (Petunia Cuttings; Day 4 after harvest): 33%
- Percentage amount of methylbenzoate emitted compared to the 24-hour period prior to harvest (Petunia Cuttings; Day 5 after harvest (flowers senesced and collapsed)): 23%
- Methylbenzoate emitted, percentage of amount emitted during the 24-hour period prior to harvest (Cut Snapdragon Flowers [5]; Day 1 after harvest): 78%
- Myrcene emitted, percentage of amount emitted during the 24-hour period prior to harvest (Cut Snapdragon Flowers [5]; Day 1 after harvest): 78%
- Ocimene emitted, percentage of amount emitted during the 24-hour period prior to harvest (Cut Snapdragon Flowers [5]; Day 1 after harvest): 88%
- Percentage amount of total floral scent emitted compared to the 24-hour period prior to harvest (Cut Snapdragon Flowers [5]; Day 1 after harvest): 85^ %
- Methylbenzoate emitted, percentage of amount emitted during the 24-hour period prior to harvest (Cut Snapdragon Flowers [5]; Day 2 after harvest): 30%
- Myrcene emitted, percentage of amount emitted during the 24-hour period prior to harvest (Cut Snapdragon Flowers [5]; Day 2 after harvest): 55%
- Ocimene emitted, percentage of amount emitted during the 24-hour period prior to harvest (Cut Snapdragon Flowers [5]; Day 2 after harvest): 58%
- Percentage amount of total floral scent emitted compared to the 24-hour period prior to harvest (Cut Snapdragon Flowers [5]; Day 2 after harvest): 48%

Compound: O=C(O)c1ccccc1 [BA, benzoic acid]
- phytotoxicity (Potted Snapdragon Plant; 1 mg/ml spray, after 24 hours): evidence of phytotoxicity
- Methylbenzoate emitted, percentage of amount emitted during the 24-hour period prior to spraying (Potted Snapdragon Plant; [9]): 152%
- Myrcene emitted, percentage of amount emitted during the 24-hour period prior to spraying (Potted Snapdragon Plant; [9]): 52%
- Ocimene emitted, percentage of amount emitted during the 24-hour period prior to spraying (Potted Snapdragon Plant; [9]): 58%
- Total floral scent emitted, percentage of amount emitted during the 24-hour period prior to spraying (Potted Snapdragon Plant; [9]): 98%
- contribution of the two monoterpenes to the overall floral scent (Potted Snapdragon Plant; after spraying 1 mg/ml (57% prior to spraying)): 33%
- membrane potential [6]: rapid and weak hyperpolarization
- electrolyte leakage [3]: rapid increase in electrolyte leakage
- Methylbenzoate emitted, percentage of amount emitted during the 24-hour period prior to harvest (Cut Snapdragon Flowers [5]; Day 1 after harvest): 84%
- Myrcene emitted, percentage of amount emitted during the 24-hour period prior to harvest (Cut Snapdragon Flowers [5]; Day 1 after harvest): 158%
- Ocimene emitted, percentage of amount emitted during the 24-hour period prior to harvest (Cut Snapdragon Flowers [5]; Day 1 after harvest): 139%
- Percentage amount of total floral scent emitted compared to the 24-hour period prior to harvest (Cut Snapdragon Flowers [5]; Day 1 after harvest): 120^ %
- Methylbenzoate emitted, percentage of amount emitted during the 24-hour period prior to harvest (Cut Snapdragon Flowers [5]; Day 2 after harvest): 91%
- Myrcene emitted, percentage of amount emitted during the 24-hour period prior to harvest (Cut Snapdragon Flowers [5]; Day 2 after harvest): 142%
- Ocimene emitted, percentage of amount emitted during the 24-hour period prior to harvest (Cut Snapdragon Flowers [5]; Day 2 after harvest): 122%
- Percentage amount of total floral scent emitted compared to the 24-hour period prior to harvest (Cut Snapdragon Flowers [5]; Day 2 after harvest): 114%
- Methylbenzoate emitted, percentage of amount emitted during the 24-hour period prior to harvest (Cut Snapdragon Flowers [5]; Day 3 after harvest): 8%
- Myrcene emitted, percentage of amount emitted during the 24-hour period prior to harvest (Cut Snapdragon Flowers [5]; Day 3 after harvest): 23%
- Ocimene emitted, percentage of amount emitted during the 24-hour period prior to harvest (Cut Snapdragon Flowers [5]; Day 3 after harvest): 20%
- Percentage amount of total floral scent emitted compared to the 24-hour period prior to harvest (Cut Snapdragon Flowers [5]; Day 3 after harvest): 15%
- Methylbenzoate emitted, percentage of amount emitted during the 24-hour period prior to harvest (Cut Snapdragon Flowers [5]; Day 4 after harvest): 4%
- Myrcene emitted, percentage of amount emitted during the 24-hour period prior to harvest (Cut Snapdragon Flowers [5]; Day 4 after harvest): 26%
- Ocimene emitted, percentage of amount emitted during the 24-hour period prior to harvest (Cut Snapdragon Flowers [5]; Day 4 after harvest): 18%
- Percentage amount of total floral scent emitted compared to the 24-hour period prior to harvest (Cut Snapdragon Flowers [5]; Day 4 after harvest): 16%
- Methylbenzoate emitted, percentage of amount emitted during the 24-hour period prior to harvest (Cut Snapdragon Flowers [5]; Day 5 after harvest): 3%
- Myrcene emitted, percentage of amount emitted during the 24-hour period prior to harvest (Cut Snapdragon Flowers [5]; Day 5 after harvest): 18%
- Ocimene emitted, percentage of amount emitted during the 24-hour period prior to harvest (Cut Snapdragon Flowers [5]; Day 5 after harvest): 18%
- Percentage amount of total floral scent emitted compared to the 24-hour period prior to harvest (Cut Snapdragon Flowers [5]; Day 5 after harvest): 12%
- transcription of IS10a (IS10a): induce the transcription

Compound: O=C(O)c1ccccc1O [salicylic acid]
- time of exposure until leaf necrosis was observed [7]: > 5 days
- time after exposure at which leaf necrosis was first noticeable [8]: ≤ 2 days

Compound: O=CC=Cc1ccccc1 [cinnamaldehyde]
- attraction of the beetle (spotted cucumber beetle): attracted

Source: patent publication US7087552B2, “Modification of floral scent in flowering plants” (Ball Horticultural Company, priority 1999, dated 2006)
